In article PMC9467586, “Development of novel 9-O-substituted-13-octylberberine derivatives as potential anti-hepatocellular carcinoma agents” (Journal of Enzyme Inhibition and Medicinal Chemistry, 2022):
Where two headings read alike, the source gives them in different places.

What was measured:
[1] = tested on: H22 liver cancer xenograft; test: In vivo anti-HCC assay, H22 liver cancer xenograft mouse model; design: species or system mice; conditions: 20 mg/kg, intravenous, once a day for 21 days, H22 mice
Method: Five-week-old male Institute of Cancer Research (ICR) mice were purchased from Shanghai SLAC Laboratory Animals Co. Ltd. Briefly, a total of 1 × 10^6 H22 cells were subcutaneously inoculated into the right flank of ICR mice according to protocols of tumour transplant research, to initiate tumour growth. After incubation for one day, mice were weighed and randomly divided into 5 groups of 8 animals. The groups were administered berberine (30 mg/kg) and 6k (15 or 30 mg/kg) in a vehicle of 10% DMF/2% Tween 80/88% saline, respectively. Vehicle and cyclophosphamide (20 mg/kg) were employed as negative and positive controls, respectively. Treatments were performed by intravenous injection once per day for a total of 21 consecutive days. Body weights and tumour volumes were measured every 2 days. The mice were sacrificed after the treatments, and the tumours were excised and weighed. The tumour volume and inhibition rate (w/w) were calculated as follows: tumour volume = L × W^2/2, where L is the length and W is the width; tumour inhibitory ratio (%) = (1-average tumour weight of treated group/average tumour weight of control group) × 100%. All procedures were performed following institutional approval in accordance with the NIH Guide for the Care and Use of Laboratory Animals.

[2] = tested on: HepG2 cells; test: In vitro antiproliferative MTT assay, HepG2 cells; type: cell-based, human; conditions: 72 h, mean ± SD (n = 3), read-out: IC50 (antiproliferative activity against HepG2 cells)
Method: (§1) HepG2, Sk-Hep-1, Huh-7, Hep3B and L-02 cells were purchased from Nanjing Key Gen Biotech Co. Ltd. (Nanjing, China). The cytotoxicity of test compounds was determined using an MTT assay. Briefly, the cell lines were incubated at 37 °C in a humidified 5% CO2 incubator for 24 h in 96-microwell plates. After medium removal, 100 μL of culture medium with 0.1% DMSO containing test compounds at different concentrations was added to each well and incubated at 37 °C for another 72 h. The MTT (5 mg/mL in PBS) was added and incubated for another 4 h, the optical density was detected with a microplate reader at 490 nm. The IC50 values were calculated according to the dose-dependent curves. All the experiments were repeated in at least three independent experiments.

[3] = tested on: Sk-Hep-1 cells; test: In vitro antiproliferative MTT assay, Sk-Hep-1 cells; type: cell-based, human; conditions: 72 h, mean ± SD (n = 3)
Method: as §1

[4] = tested on: Huh-7 cells; test: In vitro antiproliferative MTT assay, Huh-7 cells; type: cell-based, human; conditions: 72 h, mean ± SD (n = 3)
Method: as §1

[5] = tested on: Hep3B cells; test: In vitro antiproliferative MTT assay, Hep3B cells; type: cell-based, human; conditions: 72 h, mean ± SD (n = 3)
Method: as §1

[6] = tested on: normal hepatocytes L-02; test: MTT cytotoxicity assay, normal hepatocytes L-02; type: cell-based; conditions: normal hepatocytes L-02, MTT, 72 h, mean ± SD (n = 3)
Method: as §1

[7] = LWP coefficient (log D) measurement, shake flask; type: physicochemical; conditions: pH 7.4
Method: Berberine, 3c and 6k of 1 mg were dissolved in three centrifugal tubes (5 ml) containing phosphate buffer (pH 7.4)-saturated 1-octanol solution (2 mL), followed by the addition of 1-octanol saturated PBS (2 mL). Each tube was vigorously mixed for 1 min and then shaken for 6 h at a speed of 1000 rpm at 37 °C. The mixtures were then centrifuged. 1 mL of 1-octanol phase and 1 mL of buffer were separately collected. Each phase was diluted to a suitable concentration and analysed by HPLC (Shimadzu DGU-20A3R) on a Shimadzu-GL WondaSil C18-WR column (λ = 254 nm) with an eluent of methanol/water (65/35, v/v, 1.0 ml/min). The log D value for each compound was calculated from the ratio of the peak areas using the following equation: Log D = log (Areaoct × x/Areabuf × y). x, y is the dilution factor.

[8] = Aqueous solubility measurement by HPLC; type: physicochemical; conditions: 25 °C, pH 7.4, aqueous buffer, thermodynamic from solid
Method: Berberine, 3c and 6k (5 mg) were dissolved in 1 ml PBS (50 mM, pH 7.4) at 25 °C. The suspension was sonicated for 30 min and then centrifuged at 15000 g for 5 min. The supernatant was filtered through a PTFE filter (0.2 μm) slowly. Then 10 μL filtered solution was injected into the HPLC system (Shimadzu DGU-20A3R) on a Shimadzu-GL WondaSil C18-WR column and quantified using the standard curves made by the corresponding known concentrations of berberine, 3c and 6k. The eluent was methanol/water (65/35, v/v) at a flow rate of 1.0 ml/min with the detection wavelength at 254 nm.

Compound | IC50 ([2]; Homo sapiens) [µM] | melting point [°C] | also measured
O=P1(N(CCCl)CCCl)NCCCO1 (stereo not drawn) [CP, cyclophosphamide, reference compound] | – | – | tumour inhibitory rate (TIR, w/w) [1]: 64.2%
N.N.[Cl][Pt][Cl] [Cisplatin] | – | – | IC50 [2]: 6.87 ± 0.31 µM; IC50 [3]: 6.52 ± 0.42 µM; IC50 [4]: 3.03 ± 0.63 µM; IC50 [5]: 11.2 ± 0.51 µM; IC50 [6]: 6.79 ± 0.46 µM
COc1ccc2c(Cc3ccccc3)c3[n+](cc2c1OC)CCc1cc2c(cc1-3)OCO2 [Compound 3a, 13-Benzyl-9,10-dimethoxy-5,6-dihydro-[1,3]dioxolo[4,5-g]isoquinolino[3,2-a]isoquinolin-7-ium bromide] | > 50 | – | –
CCCCCCc1c2[n+](cc3c(OC)c(OC)ccc13)CCc1cc3c(cc1-2)OCO3 [Compound 3b, 13-Hexyl-9,10-dimethoxy-5,6-dihydro-[1,3]dioxolo[4,5-g]isoquinolino[3,2-a]isoquinolin-7-ium chloride] | 6.14 ± 0.57 | – | –
CCCCCCCCCCc1c2[n+](cc3c(OC)c(OC)ccc13)CCc1cc3c(cc1-2)OCO3 [Compound 3d, 13-Decyl-9,10-dimethoxy-5,6-dihydro-[1,3]dioxolo[4,5-g]isoquinolino[3,2-a]isoquinolin-7-ium chloride] | 4.45 ± 0.34 | – | –
CCCCCCCCCCCCc1c2[n+](cc3c(OC)c(OC)ccc13)CCc1cc3c(cc1-2)OCO3 [Compound 3e, 13-Dodecyl-9,10-dimethoxy-5,6-dihydro-[1,3]dioxolo[4,5-g]isoquinolino[3,2-a]isoquinolin-7-ium chloride] | 4.24 ± 0.44 | – | –
CCCCCCCCc1c2[n+](cc3c(OCCCN(CC)CC)c(OC)ccc13)CCc1cc3c(cc1-2)OCO3.[Br-] [Compound 6a, 9–(3-(Diethylamino)propoxy)-10-methoxy-13-octyl-5,6-dihydro-[1,3]dioxolo[4,5-g]isoquinolino[3,2-a]isoquinolin-7-ium bromide] | 6.82 ± 0.51 | 142 to 144 | –
CCCCCCCCc1c2[n+](cc3c(OCCCN4CCCC4)c(OC)ccc13)CCc1cc3c(cc1-2)OCO3.[Br-] [Compound 6b, 10-Methoxy-13-octyl-9–(3-(pyrrolidin-1-yl)propoxy)-5,6-dihydro-[1,3]dioxolo[4,5-g]isoquinolino[3,2-a]isoquinolin-7-ium bromide] | 7.75 ± 0.83 | 135 to 137 | –
CCCCCCCCc1c2[n+](cc3c(OCCCN4CCOCC4)c(OC)ccc13)CCc1cc3c(cc1-2)OCO3.[Br-] [Compound 6c, 10-Methoxy-9–(3-morpholinopropoxy)-13-octyl-5,6-dihydro-[1,3]dioxolo[4,5-g]isoquinolino[3,2-a]isoquinolin-7-ium bromide] | 6.25 ± 0.56 | 167 to 169 | –
CCCCCCCCc1c2[n+](cc3c(OCCCCCCN(CC)CC)c(OC)ccc13)CCc1cc3c(cc1-2)OCO3.[Br-] [Compound 6d, 9-((6-(Diethylamino)hexyl)oxy)-10-methoxy-13-octyl-5,6-dihydro-[1,3]dioxolo[4,5-g]isoquinolino[3,2-a]isoquinolin-7-ium bromide] | 4.75 ± 0.24 | 149 to 151 | –

Second part, led by results:

IC50 ([2]; Homo sapiens) [µM] | melting point [°C] | Compound | also measured
4.12 ± 0.26 | – | CCCCCCCCc1c2[n+](cc3c(OC)c(OC)ccc13)CCc1cc3c(cc1-2)OCO3.[Cl-] [Compound 3c, 9,10-Dimethoxy-13-octyl-5,6-dihydro-[1,3]dioxolo[4,5-g]isoquinolino[3,2-a]isoquinolin-7-ium chloride] | logD [7]: 2.41; solubility at 30 min [8]: 1120 µg/mL
3.91 ± 0.36 | 126 to 128 | CCCCCCCCc1c2[n+](cc3c(OCCCCCCN4CCCC4)c(OC)ccc13)CCc1cc3c(cc1-2)OCO3.[Br-] [Compound 6e, 10-Methoxy-13-octyl-9-((6-(pyrrolidin-1-yl)hexyl)oxy)-5,6-dihydro-[1,3]dioxolo[4,5-g]isoquinolino[3,2-a]isoquinolin-7-ium bromide] | –
1.27 ± 0.25 | 164 to 166 | CCCCCCCCc1c2[n+](cc3c(OCCCCCCN4CCOCC4)c(OC)ccc13)CCc1cc3c(cc1-2)OCO3.[Br-] [Compound 6f, 10-Methoxy-9-((6-morpholinohexyl)oxy)-13-octyl-5,6-dihydro-[1,3]dioxolo[4,5-g]isoquinolino[3,2-a]isoquinolin-7-ium bromide] | –
1.64 ± 0.13 | 132 to 134 | CCCCCCCCc1c2[n+](cc3c(OCCCCCCN4CCCCC4)c(OC)ccc13)CCc1cc3c(cc1-2)OCO3.[Br-] [Compound 6g, 10-Methoxy-13-octyl-9-((6-(piperidin-1-yl)hexyl)oxy)-5,6-dihydro-[1,3]dioxolo[4,5-g]isoquinolino[3,2-a]isoquinolin-7-ium bromide] | –
1.47 ± 0.19 | 165 to 167 | CCCCCCCCc1c2[n+](cc3c(OCCCCCCN4CCN(C)CC4)c(OC)ccc13)CCc1cc3c(cc1-2)OCO3.[Br-] [Compound 6h, 10-Methoxy-9-((6–(4-methylpiperazin-1-yl)hexyl)oxy)-13-octyl-5,6-dihydro-[1,3]dioxolo[4,5-g]isoquinolino[3,2-a]isoquinolin-7-ium bromide] | –
0.81 ± 0.08 | 147 to 149 | CCCCCCCCc1c2[n+](cc3c(OCCCCCCCCN4CCOCC4)c(OC)ccc13)CCc1cc3c(cc1-2)OCO3.[Br-] [Compound 6i, 10-Methoxy-9-((8-morpholinooctyl)oxy)-13-octyl-5,6-dihydro-[1,3]dioxolo[4,5-g]isoquinolino[3,2-a]isoquinolin-7-ium bromide] | –
1 ± 0.1 | 144 to 146 | CCCCCCCCc1c2[n+](cc3c(OCCCCCCCCN4CCCCC4)c(OC)ccc13)CCc1cc3c(cc1-2)OCO3.[Br-] [Compound 6j, 10-Methoxy-13-octyl-9-((8-(piperidin-1-yl)octyl)oxy)-5,6-dihydro-[1,3]dioxolo[4,5-g]isoquinolino[3,2-a]isoquinolin-7-ium bromide] | –
1.28 ± 0.11 | 135 to 137 | CCCCCCCCc1c2[n+](cc3c(OCCCCCCCCCCN4CCOCC4)c(OC)ccc13)CCc1cc3c(cc1-2)OCO3.[Br-] [Compound 6l, 10-Methoxy-9-((10-morpholinodecyl)oxy)-13-octyl-5,6-dihydro-[1,3]dioxolo[4,5-g]isoquinolino[3,2-a]isoquinolin-7-ium bromide] | –
1.44 ± 0.13 | 142 to 144 | CCCCCCCCc1c2[n+](cc3c(OCCCCCCCCCCN4CCCCC4)c(OC)ccc13)CCc1cc3c(cc1-2)OCO3.[Br-] [Compound 6m, 10-Methoxy-13-octyl-9-((10-(piperidin-1-yl)decyl)oxy)-5,6-dihydro-[1,3]dioxolo[4,5-g]isoquinolino[3,2-a]isoquinolin-7-ium bromide] | –
1.08 ± 0.1 | 136 to 138 | CCCCCCCCc1c2[n+](cc3c(OCCCCCCCCCCN4CCN(C)CC4)c(OC)ccc13)CCc1cc3c(cc1-2)OCO3.[Br-] [Compound 6n, 10-Methoxy-9-((10–(4-methylpiperazin-1-yl)decyl)oxy)-13-octyl-5,6-dihydro-[1,3]dioxolo[4,5-g]isoquinolino[3,2-a]isoquinolin-7-ium bromide] | –
